From ChEMBL document CHEMBL5543158, “Design of Evodiamine-Glucose Conjugates with Improved In Vivo Antitumor Activity” (J Med Chem, 2024)
≈ marks a conversion by molar mass, not a printed value. Calls of active or inactive are those of the source. No cut-off for these calls is given here.

Columns and labels:
HCT-116 [1] = experiment: Induction of apoptosis in human HCT116 cells assessed as accumulation of cells at G1 phase at 0.1 uM measured after 48 hrs by Annexin V-PI Flow cytometry assay (reference value: 51.12%); format: functional
HCT-116 [2] = experiment: Induction of DNA damage in human HCT-116 cells assessed as increase in gamma-H2AX level at above 0.02 to 0.5 uM incubated for 12 hrs by Western blotting analysis; format: functional, cell-based; conditions: dose 0.02-0.5 µM
[3] = Solubility of the compound in double distilled water measured upto 30 mins by UV-vis spectrophotometry; format: physicochemical
HCT-116 [4] = experiment: Reduction in GSH level in human HCT-116 cells assessed as reduced GSH content incubated for 12 hrs; format: functional, cell-based; conditions: dose 0.1-2 µM
HCT-116 [5] = experiment: In vivo antitumor effect in human HCT-116 cells xenografted mouse model assessed as tumor growth inhibition at 20 mg/kg, ip twice a day administered 21 consecutive days; format: functional; conditions: read-out: TGI
[6] = Half life in mouse at 20 mg/kg, ip measured upto 24 hrs; format: ADME, organism-based; conditions: in vivo
[7] = Tmax in mouse at 20 mg/kg, ip measured upto 24 hrs; format: ADME, organism-based; conditions: in vivo
HCT-116 [8] = experiment: Induction of apoptosis in human HCT116 cells assessed as accumulation of cells at G2 phase at 0.02 uM measured after 48 hrs by Annexin V-PI Flow cytometry assay (reference value: 17.63%); format: functional
HCT-116 [9] = experiment: Antiproliferative activity against human HCT116 cells in presence of 5 uM phloretin measured after 72 hrs by CCK-8 assay; format: functional, cell-based; conditions: HCT-116, 72 h
HCT-116 [10] = experiment: Antimigratory activity against human HCT116 cells assessed as wound healing rate incubated for 24 hrs by wound healing assay; format: functional, cell-based
[11] = Cmax in mouse at 10 mg/kg, ip measured upto 24 hrs; format: ADME, organism-based; conditions: in vivo
HCT-116 [12] = experiment: Induction of apoptosis in human HCT116 cells assessed as accumulation of cells at S phase at 0.02 uM measured after 48 hrs by Annexin V-PI Flow cytometry assay (reference value: 31.25%); format: functional
HCT-116 [13] = experiment: Pro-oxidant effect in human HCT-116 cells assessed as induction of reactive oxygen level (ROS) measured after 12 hrs by flow cytometry using the 2',7'-dichloro-fluorescein diacetate (DCFH-DA) fluorescent probe assay; format: functional, cell-based; conditions: dose 0.02-0.5 µM
HCT-116 [14] = experiment: In vivo antitumor effect in human HCT-116 cells xenografted mouse model assessed as tumor growth inhibition at 10 mg/kg, ip twice a day administered 21 consecutive days; format: functional; conditions: read-out: TGI
HCT-116 [15] = experiment: Antiproliferative activity against human HCT116 cells measured after 72 hrs by CCK-8 cells; format: functional, cell-based; conditions: HCT-116, 72 h
HCT-116 [16] = experiment: Induction of apoptosis in 100 pmol GLUT1 siRNA treated human HCT-116 cells assessed as late apoptotic cells at 50 nM incubated for 48 hrs (reference value: 13.36%); format: functional
HCT-116 [17] = experiment: Induction of apoptosis in human HCT116 cells assessed as accumulation of cells at G1 phase at 0.2 uM measured after 48 hrs by Annexin V-PI Flow cytometry assay (reference value: 51.12%); format: functional
[18] = Toxicity in mouse xenografted with human HCT-116 cells assessed as organ damage by measuring change in lungs at 10 mg/kg, ip twice a day administered 21 consecutive days; format: organism-based; conditions: in vivo
[19] = MRT (0 to t) in mouse at 10 mg/kg, ip measured upto 24 hrs; format: ADME, organism-based; conditions: in vivo
[20] = Toxicity in mouse xenografted with human HCT-116 cells assessed as organ damage by measuring change in heart at 10 mg/kg, ip twice a day administered 21 consecutive days; format: organism-based; conditions: in vivo
HCT-116 [21] = experiment: Pro-oxidant effect in human HCT-116 cells assessed as induction of reactive oxygen level (ROS) measured after 12 hrs by 2',7'-dichloro-fluorescein diacetate (DCFH-DA) fluorescent probe based flow cytometry; format: functional, cell-based; conditions: dose 0.02-0.5 µM
[22] = Stability of the compound in mouse serum assessed as compound remaining measured upto 120 mins; format: ADME, cell-free; conditions: read-out: Stability
[23] = MRT (0 to t) in mouse at 20 mg/kg, ip measured upto 24 hrs; format: ADME, organism-based; conditions: in vivo
[24] = Cytotoxicity against HUVEC after 72 hrs by CCK-8 assay; format: toxicity, cell-based; conditions: human, HUVEC cells
HCT-116 [25] = experiment: Induction of apoptosis in human HCT116 cells assessed as accumulation of cells at G1 phase at 0.02 uM measured after 48 hrs by Annexin V-PI Flow cytometry assay (reference value: 51.12%); format: functional
[26] = Half life in mouse at 10 mg/kg, ip measured upto 24 hrs; format: ADME, organism-based; conditions: in vivo
[27] = AUC (0 to t)in mouse at 10 mg/kg, ip measured upto 24 hrs; format: ADME, organism-based; conditions: in vivo

**Q.** For `CN1c2ccc(F)cc2C(=O)N2CCc3c([nH]c4ccc(O[C@@H]5O[C@H](CO)[C@@H](O)[C@H](O)[C@H]5O)cc34)[C@H]21`, which Activity (HCT-116 [1]) is on record?
**A.** 1.57%

**Q.** What about the Activity (HCT-116 [2]) of the same compound?
**A.** Active

**Q.** What about the solubility at 0.5 h [3] of the same compound?
**A.** 2150 µg/mL (≈ 4.3 mM)

**Q.** And the Activity (HCT-116 [4])?
**A.** Dose-Dependent Effect

**Q.** And the inhibition in vivo at 20 mg/kg (HCT-116 [5])?
**A.** 82%

**Q.** What about the half-life [6] of the same compound?
**A.** 372 min

**Q.** And the Tmax [7]?
**A.** 30 min

**Q.** What about the Activity (HCT-116 [8]) of the same compound?
**A.** 30.19%

**Q.** And the IC50 (HCT-116 [9])?
**A.** 210 nM

**Q.** And the Activity (HCT-116 [10])?
**A.** Dose-Dependent Effect

**Q.** And the Cmax [11]?
**A.** 4630 ng/mL

**Q.** What about the Activity (HCT-116 [12]) of the same compound?
**A.** 26.54%

**Q.** And the Activity (HCT-116 [13])?
**A.** Dose-Dependent Effect

**Q.** And the inhibition in vivo at 10 mg/kg (HCT-116 [14])?
**A.** 72%

**Q.** What about the IC50 (HCT-116 [15]) of the same compound?
**A.** 64 nM

**Q.** And the Activity (HCT-116 [16])?
**A.** 22.61%

**Q.** And the Activity (HCT-116 [17])?
**A.** 1.56%

**Q.** What about the Activity [18] of the same compound?
**A.** Non-Toxic

**Q.** And the MRT last at 24 h [19]?
**A.** 48.1 min

**Q.** And the Activity [20]?
**A.** Non-Toxic

**Q.** And the Activity (HCT-116 [21])?
**A.** Dose-Dependent Effect

**Q.** And the remaining at 2 h [22]?
**A.** 100%

**Q.** What about the MRT last at 24 h [23] of the same compound?
**A.** 59.5 min

**Q.** What about the IC50 at 72 h [24] of the same compound?
**A.** 221 nM

**Q.** What about the Activity (HCT-116 [25]) of the same compound?
**A.** 43.27%

**Q.** What about the half-life [26] of the same compound?
**A.** 145 min

**Q.** What about the AUC(0-t) at 24 h [27] of the same compound?
**A.** 4010 ng·h/mL
